# Values quoted from earlier work, collected in patent US10052328B2, “Therapeutic composition to treat lesions caused by Herpes Simplex Virus” (G2L TOUCH, INC., priority 2009, dated 2018).
# Tested on: cold sore (labial herpes simplex)
# Settings: commercial topical cream, versus untreated cold sores
smiles,measurement,value
"Nc1nc(=O)c2ncn(CCC(CO)CO)c2[nH]1 [PCV, 2-amino-9-[4-hydroxy-3-(hydroxymethyl)butyl]-6,9-dihydro-3H-purin-6-one]","reduction of the duration of a cold sore / lesion, on average",0.5 days
